pIC50: −log10 of the molar value.
Tested on: HBeAg level in HepDES19 cells (surrogate marker for cccDNA)
Assay: Engineered HepDES19 primary screen assay (HBeAg as surrogate marker for cccDNA)
Format: cell-based, HBV
Details: Hepatitis B virus, HepDES19, 120 h, read-out: IC50 (HBeAg level, HepDES19 primary screen assay)
Excerpt: The assay was employed to screen for novel cccDNA inhibitors. HepDES19 is a cccDNA-producing cell line. In this cell line, HBeAg in the cell culture supernatant as surrogate marker, as HBeAg production depends on cccDNA level and activity. HepDES19 is an engineered cell line which contains a 1.1 unit length HBV genome, and pgRNA transcription from the transgene is controlled by Tetracycline (Tet). In the absence of Tet, pgRNA transcription will be induced, but HBV e antigen (HBeAg) could not be produced from this pgRNA due to very short leader sequence before the HBeAg start codon and the start codon is disrupted. Only after cccDNA is formed, the missing leader sequence and start codon mutation would be restored from the 3′-terminal redundancy of pgRNA, and then HBeAg could be synthesized. Therefore, HBeAg could be used as a surrogate marker for cccDNA (Zhou, T. et al., Antiviral Res. (2006), 72(2), 116-124; Guo, H. et al., J. Virol. (2007), 81(22), 12472-12484).
HepDES19 cells were seeded at 2×10^6 cells per T150 flask and cultured with the culture medium (Dulbecco's Modified Eagle Medium: Nutrient Mixture F-12 [DMEM-F12, Gibco Cat. 11320-82], 10% Fetal Bovine Serum [FBS, Clontech Cat. 631101], 0.1 mM Non-Essential Amino Acids Solution [NEAA, Gibco Cat. 11140-050], 50 μg/mL Penicillin-Streptomycin [PS, Invitrogen Cat. 15140-163], 500 μg/mL Geneticin [G418, Invitrogen Cat. 10131-027]) containing 3 μg/mL Tet (Sigma, Cat. 87128) for 5 days. Cells were then seeded at 4×10^6 cells per T150 in the same culture medium as described above in the absence of Tet for 8 days. Cells were then harvested and frozen at density of 2×10^6 cells per mL. For compound testing, the frozen cells were thawed and seeded into 96-well plates at a density of 6×10^4 cells per well. At 24 hours after seeding, half log serial dilutions of compounds made with Dimethyl sulfoxide (DMSO, Sigma, Cat. D2650) were further diluted with the same culture medium as described above before they were added to the cells to reach desired final compound concentrations and 1% DMSO concentration. Plates were then incubated at 37° C. for another 5 days before measurement of HBeAg level and cell viability. Intracellular HBeAg level were measured with enzyme-linked immunosorbent assay (ELISA) kit (Shanghai Kehua Diagnostic Medical Products Co., Ltd). Cell viability was assessed using Cell Counting Kit-8 (Donjindo, Cat. CK04-20). IC50 values were derived from the dose-response curve using 4 parameter logistic curve fit method.
The compounds of the present invention were tested for their capacity to inhibit extracellular HBeAg level as described herein.

SMILES	pIC50
O=C1c2oc3c(Cl)cccc3c(=O)c2CCN1c1ccc(OC(F)(F)F)cc1 [Example 33, 9-chloro-2-(4-(trifluoromethoxy)phenyl)-3,4-dihydro-2H-chromeno[2,3-c]pyridine-1,5-dione]	5.74
COC(=O)c1cccc(CN2CCc3c(oc4c(Cl)cccc4c3=O)C2)c1 [Example 3, methyl 3-((9-chloro-5-oxo-3,4-dihydro-1H-chromeno[2,3-c]pyridin-2(5H)-yl)methyl)benzoate]	4.51
N#Cc1ccc(N2CCc3c(oc4c(Cl)cccc4c3=O)C2=O)cc1 [Example 30, 4-(9-chloro-1,5-dioxo-1,3,4,5-tetrahydro-2H-chromeno[2,3-c]pyridin-2-yl)benzonitrile]	4.49
COCOc1cc(Cl)ccc1N1CCc2c(oc3c(Cl)cccc3c2=O)C1=O [Example 46, 9-chloro-2-(4-chloro-2-(methoxymethoxy)phenyl)-3,4-dihydro-2H-chromeno[2,3-c]pyridine-1,5-dione]	5.01
O=C1c2oc3c(Cl)cccc3c(=O)c2CCN1c1ccc(Cl)cc1Br [Example 44, 2-(2-bromo-4-chlorophenyl)-9-chloro-3,4-dihydro-2H-chromeno[2,3-c]pyridine-1,5-dione]	5.21
O=C1c2oc3c(Cl)cccc3c(=O)c2CCN1c1ccc(OC(F)(F)F)cc1Cl [Example 32, 9-chloro-2-(2-chloro-4-(trifluoromethoxy)phenyl)-3,4-dihydro-2H-chromeno[2,3-c]pyridine-1,5-dione]	4.97
O=c1c2c(oc3c(Cl)cccc13)CN(c1ccc(Cl)c(Cl)c1)CC2 [Example 49, 9-chloro-2-(3,4-dichlorophenyl)-1,2,3,4-tetrahydro-5H-chromeno[2,3-c]pyridin-5-one]	4.40
O=C1c2oc3c(Cl)cccc3c(=O)c2CCN1c1cccc(OC(F)(F)F)c1 [Example 21, 9-chloro-2-(3-(trifluoromethoxy)phenyl)-3,4-dihydro-2H-chromeno[2,3-c]pyridine-1,5-dione]	4.32
COC(=O)c1cc(Cl)ccc1N1CCc2c(oc3c(Cl)cccc3c2=O)C1=O [Example 36, methyl 5-chloro-2-(9-chloro-1,5-dioxo-1,3,4,5-tetrahydro-2H-chromeno[2,3-c]pyridin-2-yl)benzoate]	4.67
O=c1c2c(oc3c(Cl)cccc13)CN(c1ccc(Cl)cc1)CC2 [Example 42, 9-chloro-2-(4-chlorophenyl)-1,2,3,4-tetrahydro-5H-chromeno[2,3-c]pyridin-5-one]	5.37
COC(=O)c1cccc(N2CCc3c(oc4c(Cl)cccc4c3=O)C2=O)c1 [Example 8, methyl 3-(9-chloro-1,5-dioxo-3,4-dihydro-1H-chromeno[2,3-c]pyridin-2(5H)-yl)benzoate]	6.64
O=C(O)C1CC(Oc2ccc(N3CCc4c(oc5c(Cl)cccc5c4=O)C3=O)cc2)C1 (stereo not drawn) [Example 11, 3-(4-(9-chloro-1,5-dioxo-3,4-dihydro-1H-chromeno[2,3-c]pyridin-2(5H)-yl)phenoxy)cyclobutanecarboxylic Acid]	4.72
CCOc1cc(Cl)ccc1N1CCc2c(oc3c(Cl)cccc3c2=O)C1=O [Example 48, 9-chloro-2-(4-chloro-2-ethoxyphenyl)-3,4-dihydro-2H-chromeno[2,3-c]pyridine-1,5-dione]	5.16
COc1ccc(COc2cc(Cl)cnc2N2CCc3c(oc4c(Cl)cccc4c3=O)C2=O)cc1 [Example 45, 9-chloro-2-(5-chloro-3-((4-methoxybenzyl)oxy)pyridin-2-yl)-3,4-dihydro-2H-chromeno[2,3-c]pyridine-1,5-dione]	5.20
O=C(Nc1ccccc1F)N1CCc2c(oc3c(Cl)cccc3c2=O)C1 [Example 7, 9-chloro-N-(2-fluorophenyl)-5-oxo-3,4-dihydro-1H-chromeno[2,3-c]pyridine-2(5H)-carboxamide]	4.40
COC(=O)c1ccc(N2CCc3c(oc4c(Cl)cccc4c3=O)C2)nc1 [Example 13, methyl 6-(9-chloro-5-oxo-3,4-dihydro-1H-chromeno[2,3-c]pyridin-2(5H)-yl)nicotinate]	4.38
COCc1cc(Cl)ccc1N1CCc2c(oc3c(Cl)cccc3c2=O)C1=O [Example 50, 9-chloro-2-(4-chloro-2-(methoxymethyl)phenyl)-3,4-dihydro-2H-chromeno[2,3-c]pyridine-1,5-dione]	4.58
COC(=O)c1cc(N2CCc3c(oc4c(Cl)cccc4c3=O)C2=O)ccc1Cl [Example 24, methyl 2-chloro-5-(9-chloro-1,5-dioxo-1,3,4,5-tetrahydro-2H-chromeno[2,3-c]pyridin-2-yl)benzoate]	4.34
COC(=O)c1ccc(N2CCc3c(oc4c(Cl)cccc4c3=O)C2=O)cc1 [Example 10, methyl 4-(9-chloro-1,5-dioxo-3,4-dihydro-1H-chromeno[2,3-c]pyridin-2(5H)-yl)benzoate]	5.11
O=C(c1cc(Cl)ccc1N1CCc2c(oc3c(Cl)cccc3c2=O)C1=O)N1CCCC1 [Example 47, 9-chloro-2-(4-chloro-2-(pyrrolidine-1-carbonyl)phenyl)-3,4-dihydro-2H-chromeno[2,3-c]pyridine-1,5-dione]	5.48
COc1ccc(N2Cc3c(oc4c(Cl)cccc4c3=O)C2=O)cc1 [Example 52, 5-chloro-2-(4-methoxyphenyl)-1H-chromeno[2,3-c]pyrrole-3,9-dione]	4.42
O=C1c2oc3c(Cl)cccc3c(=O)c2CCN1c1ccc(Br)cc1 [Example 15, 2-(4-bromophenyl)-9-chloro-3,4-dihydro-2H-chromeno[2,3-c]pyridine-1,5-dione]	4.98
O=C1c2oc3c(Cl)cccc3c(=O)c2CCN1c1ncc(Cl)cc1C(F)(F)F [Example 43, 9-chloro-2-(5-chloro-3-(trifluoromethyl)pyridin-2-yl)-3,4-dihydro-2H-chromeno[2,3-c]pyridine-1,5-dione]	4.52
O=c1c2c(oc3c(Cl)cccc13)CN(Cc1ccccc1)CC2 [Example 2, 2-benzyl-9-chloro-3,4-dihydro-1H-chromeno[2,3-c]pyridin-5(2H)-one]	4.30
N#Cc1cc(Cl)ccc1N1CCc2c(oc3c(Cl)cccc3c2=O)C1=O [Example 37, 5-chloro-2-(9-chloro-1,5-dioxo-1,3,4,5-tetrahydro-2H-chromeno[2,3-c]pyridin-2-yl)benzonitrile]	4.91
O=C(c1ccccc1F)N1CCc2c(oc3c(Cl)cccc3c2=O)C1 [Example 4, 9-chloro-2-(2-fluorobenzoyl)-3,4-dihydro-1H-chromeno[2,3-c]pyridin-5-one]	4.63
O=C(c1nccc2ccccc12)N1CCc2c(oc3c(Cl)cccc3c2=O)C1 [Example 6, 9-chloro-2-(isoquinoline-1-carbonyl)-3,4-dihydro-1H-chromeno[2,3-c]pyridin-5(2H)-one]	4.67
Cc1ccc(N2CCc3c(oc4c(Cl)cccc4c3=O)C2=O)cc1 [Example 34, 9-chloro-2-(p-tolyl)-3,4-dihydro-2H-chromeno[2,3-c]pyridine-1,5-dione]	5.22
Cc1cc(Cl)ccc1N1CCc2c(oc3c(Cl)cccc3c2=O)C1=O [Example 38, 9-chloro-2-(4-chloro-2-methylphenyl)-3,4-dihydro-2H-chromeno[2,3-c]pyridine-1,5-dione]	5.67
Cc1ccc(C)c(N2CCc3c(oc4c(Cl)cccc4c3=O)C2=O)c1 [Example 31, 9-chloro-2-(2,5-dimethylphenyl)-3,4-dihydro-2H-chromeno[2,3-c]pyridine-1,5-dione]	5.15

From US20210387996A1, “TRICYCLIC COMPOUNDS FOR THE TREATMENT AND PROPHYLAXIS OF HEPATITIS B VIRUS DISEASE” (priority 2018, published 2021)
